Source: patent US20200080053A1, “USE OF PEPTIDE COMPOUNDS FOR PROMOTING SURVIVAL, GROWTH AND CELL DIFFERENTIATION” (Axoltis Pharma, priority 2016, published 2020)

Legend:
Type in all cases: cell-based
[1] = test system: ESCs / neuroepithelial progenitors; assay: Selection of neuroepithelial progenitors from ESC embryoid bodies, Nestin immunostaining
Procedure: For these experiments, the differentiation of ESCs was preferably orientated to the neuronal differentiation pathway, according to the protocol adapted from Okabe et al., (Mechanisms of Development, 59:89-102, 1996).
In brief, to start the differentiation, the ESCs were grown on gelatin without LIF for two days. The cells were carefullly trypsinated to collect small ESC aggregates. Then, these aggregates were transferred on a Petri dish without any coating to produce non-adherent spherical cell bodies, namely the embryoid bodies (EB).
After 5 days of culture, the EB were transferred onto a new Petri dish covered with gelatin to enable cell adhesion.
After 24h of culture, the culture medium with fetal bovine serum 10% was replaced by a culture medium serum free to select neuroepithelial progenitors and the peptide NX210 (SEQ ID NO: 6) was added in the culture medium at a concentration of 0.5 mg/ml.
After 6 days of culture, the maximal content of cells expressing the nestin protein (a cytoskeletal protein specific of the neuroepithelial progenitors) was reached.
The cell population enriched for neuroepithelial progenitors was then trypsinated and seeded at a concentration of 1×10^5 cells/cm^2 on a substrate made up of a polyornithine and laminin mix. […]

[2] = test system: human mesenchymal stem cells (hMSC); assay: Cell proliferation of hMSCs depending on the culture conditions; conditions: whatever the conditions / FBS concentration (2% or 10% FBS)
Text: Adult human bone marrow mononuclear cells Ficoll-extracted from two donors were obtained from Lonza. Cells were passaged once a week. The human mesenchymal stem cells (hMSC) were selected by plastic adherence and expanded by plating 50 000 cells/cm^2 in Modified Eagle Medium Alpha (MEMalpha, MacoPharma) supplemented with 10% Fetal Bovine Serum (FBS, PAA Laboratoires) and 0.1% Penicilline/Streptomycine (P/S, Lonza). The culture medium was changed after 3 days and then every day. After 2 to 5 weeks of culture at 37° C. in a humid environment and under 5% CO2, hMSC were harvested by trypsinization. The phenotype was confirmed by FACS analysis (BD Bioscience, BD LSR II) with CD73, CD90 and CD105 (positive), as well as CD34 and CD45 (negative) (Table 1).
(§1) To investigate the neural differentiation capacity of the peptides, 25 cm^2 flasks and 12-wells culture plates were coated with sterile aqueous solutions of either NX210 or NS640 at a concentration of 80 μg/cm^2. Coatings were carried out at 37° C. and 5% CO2 over-night prior to cell plating.
On Day 0 (D0), hMSC were seeded at a concentration of 3,000 cells/cm^2 in pre-coated 25 cm^2 flasks or 12-well culture plates in complete medium and culture was placed at 37° C. in a humid environment and under 5% CO2. After 24h, medium was changed and replaced by different combinations of media containing either: MEMalpha—bFGF 12.5 ng/mL—FBS 2%—P/S 0.1%; MEMalpha—bFGF 12.5 ng/mL—FBS 10%—P/S 0.1%; MEMalpha—FBS 2%—P/S 0.1% (control condition); MEMalpha—FBS 10%—P/S 0.1% (control condition). The cells were placed at 37° C. in a humid environment and under 5% CO2, and medium was changed twice a week. […] thus was changed with: MEMalpha—ATRA […]—FBS 2%—P/S 0.1%; MEMalpha—ATRA 20 μM—FBS 10%—P/S 0.1%; MEMalpha—FBS 2%—P/S 0.1% (control condition); MEMalpha—FBS 10%—P/S 0.1% (control condition). The cells were placed at 37° C. in a humid environment and under 5% CO2. Medium was changed twice a week. On Day 15 (D15), cells were harvested by trypsinization for mRNA extraction or fixed immunocytochemical analysis.

[3] = test system: human mesenchymal stem cells (hMSC); assay: Neural differentiation of hMSCs: gene expression by real-time PCR
Procedure: as §1
On Day 0 (D0), hMSC were seeded at a concentration of 3,000 cells/cm^2 in pre-coated 25 cm^2 flasks or 12-well culture plates in complete medium and culture was placed at 37° C. in a humid environment and under 5% CO2. After 24h, medium was changed and replaced by different combinations of media containing either: MEMalpha—bFGF 12.5 ng/mL—FBS 2%—P/S 0.1%; MEMalpha—bFGF 12.5 ng/mL—FBS 10%—P/S 0.1%; MEMalpha—FBS 2%—P/S 0.1% (control condition); MEMalpha—FBS 10%—P/S 0.1% (control condition). The cells were placed at 37° C. in a humid environment and under 5% CO2, and medium was changed twice a week. On Day 8, medium was replaced by medium containing ATRA in the place of bFGF and thus was changed with: MEMalpha—ATRA […]—FBS 2%—P/S 0.1%; MEMalpha—ATRA 20 μM—FBS 10%—P/S 0.1%; MEMalpha—FBS 2%—P/S 0.1% (control condition); MEMalpha—FBS 10%—P/S 0.1% (control condition). The cells were placed at 37° C. in a humid environment and under 5% CO2. Medium was changed twice a week. […]
Total RNA was extracted using RNAeasy total purification kit following instructions of the manufacturer (Qiagen). cDNA were generated using a High-Capacity cDNA Reverse Transcription kit (Applied Biosystems) as described by the manufacturer.
The expression levels of genes (GFAP, Musashi 1, Nestin, Beta3-Tubuline, MAP-2 and GAPDH) were analyzed by real-time PCR using TaqMan gene Expression Master Mix (Applied Biosystems) on the Applied Biosystems 7900 Real time PCR system (Life technologies). Samples were analyzed in triplicates. Data were normalized using the GAPDH gene as an internal control and relative quantification (RQ) of the genes in a sample was determined according to the equation 2^−Δct.

W-S-G-W-S-S-C-S-R-S-C-G (WSGWSSCSRSCG) [NX210]
cells expressing the Nestin protein (neuronal precursors) ([1]; 0.5 mg/ml NX210 in serum free medium, then 2 days with FGF2, compared to untreated culture): More cells expressing the Nestin protein | response to the specific stimulation by FGF2 ([1]; during selection of the neuroepithelial progenitors): promotes a more efficient response | effect on cell proliferation (number of MSCs) [2]: no effect | effect of peptide coating on the increase in Nestin, βIII-Tubulin and MAP-2 gene expression ([3]; bFGF then ATRA, 2% FBS, peptide coating 80 μg/cm2): does not modify this increase | MAP-2 expression ([3]; bFGF then ATRA, 10% FBS, peptide coating, vs ×0.75 without peptide (FIG. 5)): 1.21 × | Nestin expression ([3]; bFGF then ATRA, 10% FBS, peptide coating, vs ×1.2 without peptide (FIG. 5)): 2 × | Nestin expression ([3]; patient no 1, day 5, bFGF 10% without ATRA (FIG. 6)): 2 × | MAP-2 expression ([3]; patient no 2, D5, with bFGF (FIG. 7)): increased | βIII-Tubuline expression ([3]; patient no 2, after 5 days of culture, with bFGF (FIG. 7)): maximized | Nestin expression ([3]; patient no 2, bFGF 10% without ATRA, with or without coating (FIG. 7)): 1.95 ×
